Data taken from patent US4312883A, “Furocoumarin for the photochemotherapy of psoriasis and related skin diseases” (Consiglio Nazionale delle Ricerche, priority 1979, dated 1982).

Legend:
[1] = cited from earlier work
[2] = known furocoumarins, Table I; cited from earlier work
DNA synthesis = conditions: Table I; cited from earlier work
DNA [3] = conditions: cited from earlier work; for DNA intercalation property / Interstrand cross-linking induction in DNA / Monoadduct forming property: Table I; for Photobinding capacity to DNA: known furocoumarins
melamin pigmentation = conditions: Table I; cited from earlier work
psoriasis = test: Topical photochemotherapy of psoriasis in patients; format: in vivo, human; conditions: for No. of patients with Excellent result / No. of patients with Fair result / No. of patients with Good result / No. of patients with Poor result: topical 0.1% w/v + UV-A; for No. of patients with Excellent result: Excellent = 90% clearance; for No. of patients with Fair result: Fair = 50-70%; for No. of patients with Good result: Good = 70-90%; for No. of patients with Poor result: Poor 40%
Source text: Clinical data: The effectiveness of certain representative alkylangelicins according to the present invention, specifically 5-methylangelicin, 4,5'-dimethylangelicin, 4'-hydroxymethyl-4,5'-dimethylangelicin, 4'-hydroxymethyl-4,5'-dimethylangelicin and 4,5-dimethylangelicin, has been tested by measuring their capacity to resolve psoriasis in various patients. For a direct comparison the efficacy of the parent unsubstituted angelicin and that of three very effective linear furocoumarins, that is 8-methoxypsoralen (8-MOP), 5-methoxypsoralen (5-MOP), and 4,5',8-trimethylpsoralen (TMP) were also tested.
In each treatment four areas of the affected skin were used;
(a) In the first area an alcohol lotion, containing 10% glycerine, of the tested compound (0.1% w/v) was applied until a concentration of […] was reached then left to evaporate by the heat of the body. After half an hour the area was irradiated with high intensity UV-A emitting low pressure mercury fluorescent lamps with a wavelength of 320-400 nm. The irradiation doses were selected in the range of 4.5-13 J/cm^2 for each application as a function of the sensitivity of the skin of the patients; when the skin sensitivity was higher, the light doses were lower and vice versa.
(b) A second area was treated with an alcohol solution of the drug as in (a) but it was covered and maintained in the dark.
(c) A third area, where the drug was not applied, was irradiated as in (a) but in general with higher UV-A doses.
(d) A fourth area was not treated at all, neither with the drug, not with UV-A.
The treatment with the alkylangenlicins referred to above was repeated 5 time a week for two or more weeks; the total number of treatments was between 8 and 20 per subject. In some cases, as for instance with 5-methylangelicin, a good clearing of psoriasis was observed after 8 treatments.
In order to avoid induction of photosensitization processes such as redness and erythema in the reference tests made with the linear furocoumarins 8-MOP, 5-MOP, TMP, lower light doses were used than in the case of alkylangelicins, the treatments were repeated at a frequency of no more than three times a week.

[4] = Table I; cited from earlier work
DNA [5] = test: Dark complex formation (intercalation) with DNA in the ground state, binding parameters; design: K (association constants) of the complexes with DNA: unit not given here; conditions: for K (association constants) of the complexes with DNA / 1/n (frequency of binding sites): in vitro, ground state; for K (association constants) of the complexes with DNA: McGhee and Von Hippel method; for 1/n (frequency of binding sites): molecules bound per nucleotide; for 1/n (frequency of binding sites), relative / K (association constants), relative: relative (ang = 100)
Source text: Dark complex formation: It is known from F. Dall'Acqua, et al. Chem.-Biol. Interactions 21,103 (1978) that the intercalated complex formed by furocoumarins with DNA strongly affects the successive photoaddition increasing the rate of photobinding. […] These parameters have been determined according to the method of McChee and Von Hippel, J.Mol.Biol, 86, 469 (1974).
(a) Determined according to Mc Ghee and Von Hippel, J. Mol. Biol.,

epidermal DNA synthesis [6] = test: Inhibition of the synthesis of epidermal DNA of the mouse in vivo after oral administration and UV-A irradiation; conditions: oral 0.25 g/Kg, UV-A 9 J/cm^2 after two hours
Source text: Considering that the topical skin tests carried out on mice to evaluate the effectiveness of these substances has yielded data which correlate well with the clinical data, such a test conveniently modified has been adopted to evaluate the effectiveness of the alkylangelicins after oral administration followed by UV-A irradiation.
In this connection experiments have been conducted using mice 20±2 g in weight, that were starved for three hours before oral administration of the alkylangelicins. Groups of 5 mice were fed a suspension of 0.5% methylcellulose in water containing the alkylangelicins of the invention at a dosage of 0.25 g/Kg. The animals were kept in the dark for two hours, that is for the time necessary for absorption, systemic distribution and localization of the drug at the level of the skin. The animals were then irradiated with UV-A light, 9 J/cm^2. Later the animals were sacrificed and the inhibition of the epidermal DNA synthesis was tested; the results obtained are reported in Table VI. The skin on the back, protected from light by a dark paper, was assumed as a control. As a reference 8-MOP, used under the same experimental conditions, was also tested. The significant activity of the alkylangelicins according to the present invention, higher than that of 8-MOP, in inhibiting the epidermal DNA synthesis in mice upon oral administration allows one to consider these compounds as also being effective for oral administration to humans for photochemotherapy of psoriasis and of other skin diseases that are characterized by cellular hyperproliferation.

epidermal DNA synthesis [7] = test: Inhibition of epidermal DNA synthesis in the mouse in vivo after topical application and UV-A irradiation; conditions: light or radiation study, 0.01% methanol solutions, UV-A 9 J/cm^2, read-out: Percent inhibition ± standard error of epidermal DNA synthesis
Protocol: DNA samples were dissolved in water and their specific radioactivity determined.
Each drug substance was studied using at least six mice.

DNA [8] = test: Capacity to form inter-strand cross-linkages in DNA; format: biochemical; conditions: (psr = 100)
Protocol: All these compounds were not suitable to photoinduce in DNA inter-strand cross-linkages. […] These tests were carried out according to the method of F. Bordin et al., Photochem. Photobiol., 29,1063 (1979).

[9] = system: RNA synthesis in Ehrlich ascites tumor cells; test: Inhibition of RNA synthesis on irradiation at 365 nm; format: cell-based; conditions: relative (ang = 100)
Source text: (§1) Photobiological activity: A significant test for assessing photobiological activity of alkylangelicins is the study of their capacity to inhibit DNA and RNA synthesis in Ehrlich ascites tumor cells. In Table III the capacity of inhibition is expressed as ID50, that is the irradiation does, in terms of quanta at 365 nm, necessary to inhibit in these cells the 50% of the DNA and RNA synthesis in the presence of a constant amount of alkylangelicin. […] Moreover, in general it can be observed that in this simple biological system a close correlation exists between photobiological activity and the capacity to induce photochemical lesions in DNA, that is photoreactivity.

[10] = system: DNA synthesis in Ehrlich ascites tumor cells; test: Inhibition of DNA synthesis (and DNA and RNA synthesis) on irradiation at 365 nm; format: cell-based; conditions: for inhibition of DNA synthesis, relative: relative (ang = 100)
Source text: as §1

DNA [11] = test: Photobinding to DNA, rate constants of the photoreactions; format: biochemical; conditions: for Rate constants of the photoreactions with DNA: in vitro, UV-A irradiated; for Rate constants of the photoreactions with DNA, relative: relative (ang = 100)
Source text: (b) Determined according to F. Dall'Acqua, S. Marciani, F. Zambon and G.
Rodighiero, Photochem. Photobiol., 29,489(1979).
Photobinding capacity to DNA: The introduction of one or two methyl groups in the molecule of angelicin leads to a strong increase of the photobinding to DNA; see Table II. […] Photobiol., 29, 489 (1979).

skin = test: Relative skin phototoxicity; conditions: (psr = 100)

Row | Molecule | No. of patients with Excellent result (psoriasis) [patients] | No. of patients with Fair result (psoriasis) [patients] | No. of patients with Good result (psoriasis) [patients] | No. of patients with Poor result (psoriasis) [patients] | inhibition in vivo at 0.01 % (epidermal DNA synthesis [7]) [%] | capacity to form interstrand cross-linkages (DNA [8]) | inhibition of RNA synthesis, relative [9] | K (association constants) of the complexes with DNA (DNA [5]) | 1/n (frequency of binding sites) (DNA [5]) | 1/n (frequency of binding sites), relative (DNA [5]) | K (association constants), relative (DNA [5]) | inhibition of DNA synthesis, relative [10] | Rate constants of the photoreactions with DNA (DNA [11]) [K × 10^-2 × min^-1] | Rate constants of the photoreactions with DNA, relative (DNA [11]) | Relative skin phototoxicity (skin) | other results
1 | Cc1cc2cc3c(C)cc(=O)oc3c(C)c2o1 [TMP, 4,5',8-trimethylpsoralen] | 2 | 2 | 2 | 2 | – | – | – | – | – | – | – | – | – | – | – | Carcinogenicity (oral) [1]: weak; Carcinogenicity (topical) [1]: strong; Photosensitizing activity [2]: known, strong; DNA synthesis inhibiting property (DNA synthesis): known, strong; DNA intercalation property (DNA [3]): strong; Interstrand cross-linking induction in DNA (DNA [3]): strong, well known; Monoadduct forming property (DNA [3]): known, strong; Photobinding capacity to DNA (DNA [3]): known, strong; Stimulation of melamin pigmentation (melamin pigmentation): strong, well known; Mutagenicity [4]: known, strong
2 | 4'-aminomethoxymethyl-4,5'-dimethylangelicin | – | – | – | – | – | – | – | – | – | – | – | – | – | – | – | increase of K (affinity towards DNA) (DNA [5]; on introduction of a cationic moiety in addition to the two methyl groups): more than 20 times
3 | COc1c2ccoc2cc2oc(=O)ccc12 [5-MOP, 5-methoxypsoralen] | 0 | 1 | 4 | 4 | – | – | – | – | – | – | – | – | – | – | – | Carcinogenicity (oral) [1]: weak; Carcinogenicity (topical) [1]: strong; Photosensitizing activity [2]: known, strong; DNA synthesis inhibiting property (DNA synthesis): known, strong; DNA intercalation property (DNA [3]): strong; Interstrand cross-linking induction in DNA (DNA [3]): strong, well known; Monoadduct forming property (DNA [3]): known, strong; Photobinding capacity to DNA (DNA [3]): known, strong; Stimulation of melamin pigmentation (melamin pigmentation): strong, well known; Mutagenicity [4]: known, strong
4 | Cc1cc(=O)oc2c1c(C)cc1occc12 [4,5-dimethylangelicin] | 0 | 0 | 0 | 2 | 36 ± 1.1 | – | – | – | – | – | – | – | – | – | – | Percent inhibition ± standard error of epidermal DNA synthesis (epidermal DNA synthesis [6]): 55.0 ± 6.0%; efficacy in psoriasis patients (in words) (psoriasis; topical + UV-A): equal to angelicin
5 | COCc1c(C)oc2ccc3c(C)cc(=O)oc3c12 [4'-methoxymethyl-4,5'-dimethylangelicin, 4,5'-dimethyl-4'-methoxymethylangelicin] | – | – | – | – | – | 0 | 169 | 700 | 0.050 | 80 | 125 | 110 | 1.6 | 145 | 0 | –
6 | CC(=O)OCc1c(C)oc2ccc3c(C)cc(=O)oc3c12 [4'-acetoxymethyl-4,5'-dimethylangelicin, 4,5'-dimethyl-4'-acetoxymethylangelicin] | – | – | – | – | 10.6 ± 4.5 | – | – | – | – | – | – | – | – | – | – | Percent inhibition ± standard error of epidermal DNA synthesis (epidermal DNA synthesis [6]): 64.8 ± 13.9%
7 | Cc1cc2c(cc(C)c3ccc(=O)oc32)o1 [5,5'-dimethylangelicin] | – | – | – | – | 48.3 ± 2.9 | 0 | 355 | 1750 | 0.085 | 135 | 312 | 180 | 2.73 | 248 | 0 | –
8 | Cc1cc2c(cc(C)c3c(C)cc(=O)oc32)o1 [4,5,5'-trimethylangelicin] | – | – | – | – | – | – | – | – | – | – | – | – | – | – | – | capacity to inhibit the DNA and RNA synthesis (in words) ([10]; Ehrlich ascites tumor cells, versus angelicin): lower than that of angelicin; photobinding capacity to DNA (in words) (DNA [11]; versus angelicin): close to that of angelicin
9 | Cc1cc2c(ccc3ccc(=O)oc32)o1 [5'-methylangelicin, 5'methylangelicin] | – | – | – | – | – | 0 | 134 | 1200 | 0.073 | 116 | 214 | 150 | 2.11 | 191 | 0 | –
10 | Cc1cc(=O)oc2c1ccc1occc12 [4-methylangelicin] | – | – | – | – | 68.5 ± 19.5 | 0 | 129 | 1400 | 0.076 | 120 | 250 | 104 | 1.61 | 146 | 0 | –
11 | Cc1oc2ccc3c(C)cc(=O)oc3c2c1CO [4'-hydroxymethyl-4,5'-dimethylangelicin, 4,5'-dimethyl-4'-hydroxy-methylangelicin] | 0 | 2 | 1 | 1 | – | 0 | 169 | 1250 | 0.087 | 138 | 223 | 272 | 3.2 | – | 0 | Percent inhibition ± standard error of epidermal DNA synthesis (epidermal DNA synthesis [6]): 54.2 ± 6.8%
